The text below walks through data of publication PMC9616412, “Nebulized fusion inhibitory peptide protects cynomolgus macaques from measles virus infection” (Nature Communications, 2022).

For the series the following is noted: 74 MBq in 3 ml NaCl 0.9%, mesh nebulizer; Mean +/- SD of four experiments.

Procedure: Following European recommendations, 2 five-year-old healthy female cynomolgus macaques, 3–4 kg, were housed under conventional conditions in the animal facility. […] Animals were acclimatized to laboratory conditions and trained to breathe an aerosol with a facemask spontaneously. Aerosol generated from 3 ml of 0.9% NaCl mixed with 74 MBq of DTPA radiolabeled with technetium 99 m (^99mTc-DTPA) was administered through a facemask connected to the prototype mesh nebulizers, as used in MeV infection experiments (Fig. 2a). Deposition of aerosol was extrapolated based on the ^99mTc-DTPA signal measured at the end of the nebulization using a gamma camera (Orbiter 75 Ecam, Siemens healthcare, Erlangen, Germany)[69]. The nebulizer charge was measured by counting the radioactivity in the syringe (that contained ^99mTc-DTPA) before and after loading the nebulizers. Immediately after aerosol delivery, the animals were imaged using the gamma camera. The post-anterior static scintigraphy acquisition was performed for 120 s. The amount of ^99mTc-DTPA deposited into airways and stomach and remaining in the nebulizer was determined from the digitalized images taking into account the tissue attenuation coefficients, previously determined by perfusion scintigraphy (intravenous injection of ^99mTc-macroagregates of albumin). The organ body outline was specified using a specific Region Of Interest (ROI), and the lungs were delineated using the perfusion scan ROI. The aerosol dose delivered to different organs of NHPs is reported as a percentage of the nominal dose placed in the nebulizer for that given experiment, taking into account the decay of technetium for all measurements.

As for `O=C([O-])CN(CCN(CC(=O)[O-])CC(=O)[O-])CCN(CC(=O)[O-])CC(=O)[O-].[99Tc+4]` [99mTC-DTPA, DTPA radiolabeled with technetium 99 m], the “Deposition in macaque, Esophagus / trachea” value is 3.4 +/- 4.2%; the “Deposition in macaque, Lungs” value is recorded as 11.4 +/- 3.1%; the “Deposition in macaque, Stomach” value is 11.9 +/-9.2%; the “Deposition in macaque, Upper respiratory Tract” value is recorded as 29.5 +/- 11.9%.
